Structures can show the parent of a compound that is named as a salt.
Key:
Format in all cases: biochemical
[1] = test system: serotonine (5-HT) reuptake in synaptosomes; assay: Inhibition of 3H-5-HT reuptake in synaptosomes; conditions: read-out: 5-HT-uptake IC50
Procedure: (§1) Compounds were tested for their ability to inhibit the reuptake of the monoamine neurotransmitters dopamine (DA) noradrenaline (NA) and serotonine (5-HT) in synaptosomes as described in WO 97/16451 (NeuroSearch A/S).
(§2) The test values are given as IC50 (the concentration (μM) of the test substance which inhibits the specific binding of ^3H-DA, ^3H-NA, or ^3H-5-HT by 50%).

[2] = test system: dopamine (DA) reuptake in synaptosomes; assay: Inhibition of 3H-DA reuptake in synaptosomes; conditions: read-out: DA-uptake IC50
Procedure: as §1, §2

[3] = test system: noradrenaline (NA) reuptake in synaptosomes; assay: Inhibition of 3H-NA reuptake in synaptosomes; conditions: read-out: NA-uptake IC50
Procedure: as §1, §2

Structure (SMILES) | IC50 [1] | IC50 [2] | IC50 [3]
COc1ccc2sc(C3=CC4CCC(C3)N4)cc2c1 (stereo not drawn) [Compound 2.1, 3-(5-Methoxy-benzo[b]thiophen-2-yl)-8-aza-bicyclo[3.2.1]oct-2-ene hydrochloric acid salt] | 2.5 nM | 740 nM | 57 nM
Oc1ccc2sc(C3=CC4CCC(C3)N4)cc2c1 (stereo not drawn) [Compound 3.1, 2-(8-Aza-bicyclo[3.2.1]oct-2-en-3-yl)-benzo[b]thiophen-5-ol hydrochloric acid salt] | 0.37 nM | 94 nM | 4.3 nM

From patent publication US8633218B2, “8-azabicyclo[3.2.1]oct-2-ene derivatives and their use as monoamine neurotransmitter re-uptake inhibitors” (Aniona APS, priority 2008, dated 2014)
